Patent publication US4016166A, “1-Nitrophenylquinazoline-2,4(1H,3H)-diones” (Hisamitsu Pharmaceutical Co., Inc., priority 1973, dated 1977)
Read-outs that look alike come from different tables or passages of the source.

Legend:
dd-strain male mice = type: in vivo; conditions: mouse, 72 hours
Procedure: The lethal dose was estimated from the death of animals 72 hours after administration.

[1] = tested on: acetic acid writhing syndrome; assay: Analgetic effect (acetic acid writhing, mouse); type: in vivo, dd-strain male mice; conditions: oral, read-out: analgetic effect ED50 (95% C.L.)
Description: Each test compound suspended in 0.5 % tragacanth-saline solution was orally administered to dd-strain male mice (18-20 g). After one hour 0.6 % acetic acid solution was intraperitoneally injected in a volume of […].

righting reflex = assay: Central nervous system depressive effect (disappearance of righting reflex, mouse); type: in vivo, dd-strain male mice; conditions: ip, read-out: CNS depressive effect (dose required for disappearance of righting reflex)
Procedure: Each test compound suspended in 0.5 % tragacanth-saline solution was injected intraperitoneally to dd-strain male mice (16-24 g). The disappearance of righting reflex was observed under noiseless circumstances. The dose required for the dissappearance of righting reflex is indicated with the following notations: […]

carrageenin edema = assay: Anti-inflammatory effect (carrageenin edema, hind paw, rat); type: in vivo, Wistar-strain male rats; conditions: oral, 3 hours after carrageenin, read-out: anti-inflammatory effect (inhibition percentage of carrageenin edema)
Procedure: A group of five Wistar-strain male rats (100-150 g) were orally administered with each test compound suspended in 0.5 % tragacanth-saline solution. After 30 minutes 0.5 %-1.0 % carrageenin suspended in the water for injection was injected subcutaneously to a hind paw. After 3 hours the carrageenin edema was measured by volume and the inhibition percentage was determined with respect to the results for the control animals. The inhibition percentages were shown with the notations as follows: […]

Row | SMILES | acute toxicity (lethal dose) (dd-strain male mice; i.p.) | acute toxicity (lethal dose) (dd-strain male mice; p.o.) | ED50 [1] | minimal effective dose (righting reflex; mouse) | inhibition in vivo at 10 mg/kg (carrageenin edema) | inhibition in vivo at 50 mg/kg (carrageenin edema) | minimal effective dose (righting reflex; Mus musculus)
1 | CC(C)n1c(=O)c2ccccc2n(-c2cccc([N+](=O)[O-])c2)c1=O | > 1000 mg/kg | > 2000 mg/kg | 2.9 mg/kg | 30 to 100 mg/kg | 16 to 30% | 46 to 60% | 
2 | O=c1c2ccccc2n(-c2cccc([N+](=O)[O-])c2)c(=O)n1CC1CC1 | 1000 mg/kg |  |  | 100 to 300 mg/kg | 31 to 45% | 46 to 60% | 
3 | C#CCn1c(=O)c2ccccc2n(-c2cccc([N+](=O)[O-])c2)c1=O | > 1000 mg/kg | > 2000 mg/kg | 40 mg/kg | > 1000 mg/kg | < 15% | 31 to 45% | 
4 | Cn1c(=O)c2ccccc2n(-c2cccc([N+](=O)[O-])c2)c1=O [Compound 2, 1-(m-nitrophenyl)-3-methylquinazoline-2,4(1H, 3H)-dione] | > 1000 mg/kg | > 2000 mg/kg | 12.5 mg/kg | 100 to 300 mg/kg | 31 to 45% | 46 to 60% | 
5 | CCn1c(=O)c2ccccc2n(-c2cccc([N+](=O)[O-])c2)c1=O [Compound 3, 1-(m-nitrophenyl)-3-ethylquinazoline-2,4(1H, 3H)-dione] | > 1000 mg/kg | > 2000 mg/kg | 6 mg/kg | 30 to 100 mg/kg | > 61% | > 61% | 
6 | CCCn1c(=O)c2ccccc2n(-c2cccc([N+](=O)[O-])c2)c1=O [Compound 4, 1-(m-nitrophenyl)-3-propylquinazoline-2,4(1H,3H)-dione] | 1000 mg/kg | > 2000 mg/kg | 51 mg/kg | > 1000 mg/kg | < 15% | 16 to 30% | 
7 | C=CCn1c(=O)c2ccccc2n(-c2cccc([N+](=O)[O-])c2)c1=O [Compound 6, 1-(m-nitrophenyl)-3-allylquinazoline-2,4(1H, 3H)-dione] | > 1000 mg/kg | 2000 mg/kg | > 100 mg/kg | > 1000 mg/kg | 16 to 30% | 31 to 45% | 
8 | O=c1c2ccccc2n(-c2cccc([N+](=O)[O-])c2)c(=O)n1CCF [Compound 10] | > 1000 mg/kg | > 2000 mg/kg | 1.48 mg/kg | 30 to 100 mg/kg | > 61% | 46 to 60% | 
9 | O=c1c2ccccc2n(-c2cccc([N+](=O)[O-])c2)c(=O)n1CCCl [Compound 11] | > 1000 mg/kg | > 2000 mg/kg | 5.5 mg/kg | 100 to 300 mg/kg |  | 16 to 30% | 
10 | O=c1c2ccccc2n(-c2cccc([N+](=O)[O-])c2)c(=O)n1CC(F)(F)F [Compound 12, 1-(m-nitrophenyl)-3-(2,2,2-trifluoroethyl) quinazoline-2,4(1H, 3H)-dione] | > 1000 mg/kg | > 2000 mg/kg | 44 mg/kg | > 1000 mg/kg | 16 to 30% | 31 to 45% | 
11 | O=c1c2ccccc2n(-c2cccc([N+](=O)[O-])c2)c(=O)n1CCO [Compound 13] |  | 2000 mg/kg | 2.25 mg/kg | 10 to 30 mg/kg |  | 31 to 45% | 
12 | CCOCCn1c(=O)c2ccccc2n(-c2cccc([N+](=O)[O-])c2)c1=O [Compound 16, 1-(m-nitrophenyl)-3-(2-ethoxyethyl)quinazoline-2,4(1H, 3H)-dione] | > 1000 mg/kg | > 2000 mg/kg | 2.15 mg/kg | 30 to 100 mg/kg |  | 16 to 30% | 
13 | O=c1c2ccccc2n(-c2cccc([N+](=O)[O-])c2)c(=O)n1CCOCCO [Compound 17] | 1000 mg/kg | 2000 mg/kg | 3.7 mg/kg | 30 to 100 mg/kg |  | 16 to 30% | 
14 | CC(=O)OCCn1c(=O)c2ccccc2n(-c2cccc([N+](=O)[O-])c2)c1=O [Compound 18] | > 1000 mg/kg | 2000 mg/kg | 1.7 mg/kg | 10 to 30 mg/kg |  | 16 to 30% | 
15 | Cn1c(=O)c2ccccc2n(-c2cccc([N+](=O)[O-])c2)c1=S [Compound 23] | > 1000 mg/kg |  | > 100 mg/kg | > 1000 mg/kg | < 15% | 16 to 30% | 
16 | CCn1c(=O)c2ccccc2n(-c2cccc([N+](=O)[O-])c2)c1=S [Compound 24, 1-(m-nitrophenyl)-3-ethyl-2-thio-4-oxo-1,2,3,4-tetrahydroquinazoline] | > 1000 mg/kg |  | 3.4 mg/kg | 300 to 1000 mg/kg | 31 to 45% | 46 to 60% | 
17 | O=c1c2ccccc2n(-c2cccc([N+](=O)[O-])c2)c(=S)n1CC(F)(F)F [Compound 26] | > 1000 mg/kg | > 2000 mg/kg | > 100 mg/kg | > 1000 mg/kg |  | < 15% | 
18 | CCn1c(=O)c2ccccc2n(-c2cccc(C(F)(F)F)c2)c1=O [R1=drawing 18, R2=C2 H5, reference compound] | 456 mg/kg | > 4000 mg/kg | > 100 mg/kg | > 1000 mg/kg | < 15% | 31 to 45% | 
19 | O=c1c2ccccc2n(-c2cccc(C(F)(F)F)c2)c(=O)n1CCO [R1=drawing 18, R2=CH2 CH2 OH, reference compound] | 200 mg/kg | 970 mg/kg | 35 mg/kg | 30 to 100 mg/kg | < 15% | 31 to 45% | 
20 | O=C(O)c1ccccc1Nc1cccc(C(F)(F)F)c1 [flufenamic acid, reference compound] |  |  |  | > 1000 mg/kg |  |  | 
21 | Cc1ccccc1-n1c(C)nc2ccccc2c1=O [methaqualone, reference compound] |  |  |  |  |  |  | 10 to 30 mg/kg
22 | CCCCC1C(=O)N(c2ccccc2)N(c2ccccc2)C1=O [phenylbutazone, reference compound] |  |  |  | 300 to 1000 mg/kg |  |  | 
